This note sets out measurements from patent US4965280A, “Antifungal carbinols” (E. I. Du Pont de Nemours and Company, priority 1989, dated 1990).

Values after ≈ are worked out from the molar mass of the structure shown. Read-outs that look alike come from different tables or passages of the source.

One assay relates to Botrytis cinerea. Nature of the assay: Example C bean grey mold. In kind it is in vivo. As to conditions: Botrytis cinerea, 24 h, read-out: disease control rating, Ex. C. The procedure: The test compounds were dissolved in acetone in an amount equal to 6% of the final volume and then suspended at a concentration of 100 or 20 ppm in purified water containing 250 ppm of the surfactant TREM 014 (polyhydric alcohol esters). This suspension was sprayed to the point of run-off on broad bean seedlings.

A further assay relates to Puccinia recondita. Nature of the assay: Example G wheat leaf rust. In kind it is in vivo. The settings on record: 20 PPM, read-out: disease control rating, Ex. G.
Assay [1] concerns Cercosporidium personatum. In words: Example B Peanut Late Leafspot. In kind it is in vivo. The settings on record: Nothopassalora personata; 20 PPM; read-out: disease control rating, Ex. B. The method, then:
The test compounds were dissolved in acetone in an amount equal to 6% of the final volume and then suspended at a concentration of 100 or 20 ppm in purified water containing 250 ppm of the surfactant TREM 014 (polyhydric alcohol esters). This suspension was sprayed to the point of run-off on peanut seedlings.

For the next assay, the system named is Plasmorpara viticola. In words: Example I grape downy mildew. As to conditions: read-out: disease control rating, Ex. I. In kind it is in vivo. The method, then: The test compounds were dissolved in acetone in an amount equal to 6% of the final volume and then suspended at a concentration of 100 or 20 ppm in purified water containing 250 ppm of the surfactant TREM 014 (polyhydric alcohol esters). This suspension was sprayed to the point of run-off on grape seedlings.

In a further assay the test system is Rhizoctonia solani. In words: Example F rice sheath blight. In kind it is in vivo. As to conditions: Rhizoctonia solani, 144 h, read-out: disease control rating, Ex. F. The procedure: The test compounds were dissolved in acetone in an amount equal to 6% of the final volume and then suspended at a concentration of 100 or 20 ppm in purified water containing 250 ppm of the surfactant TREM 014 (polyhydric alcohol esters). This suspension was sprayed to the point of run-off on rice seedlings.

Assay [2] relates to Candida albicans ATCC 11651. In words: In vitro antifungal MIC, microtiter broth dilution. As to conditions: Candida albicans, ATCC11651, 24 h, read-out: MIC values, C. albicans, 30°, 24 hours.
Procedure: In vitro activity (Table 5) is expressed in terms of the minimal inhibitory concentration (MIC) of the test compound which inhibits the growth of yeasts and fungi.
The target organisms, Candida albicans ATCC 11651 and Aspergillus fumigatus ATCC 28214 are standardized, [V. Bezjak, J. Clinical Micro., 21 509-512 (1984)], to a concentration of 10^7 organisms/ml and maintained at -70° until use. Test compounds are solubilized in dimethyl sulfoxide (DMSO) and diluted in Eagle's Minimum Essential Medium (EMEM) broth to achieve a final concentration of 200 μg/ml. Stock solutions of standard antifungal agents are stored at -70° and diluted in EMEM as required.
The in vitro assay utilizes a microtiter broth dilution technique [L. Polonelli and G. Morace, Mycopathologia, 86, 21-28 (1984)] and C. […] The appropriate wells are inoculated with the required organism (C. albicans at 1×10^4 organisms/ml and A. fumigatus at 5×10^5 organisms/ml) and the assay incubated at 30° for 24 hours.
A further assay deals with Pyricularia oryzae. In words: whole plant or invertebrate. In kind it is in vivo. As to conditions: Pyricularia oryzae, 120 h; for pest or weed control at 20 ppm: read-out: disease control rating, Ex. E, 20 PPM; for pest or weed control at 100 ppm: read-out: disease control rating, Ex. E, 100 PPM.
Assay [3] concerns Aspergillus fumigatus ATCC 28214. Nature of the assay: In vitro antifungal MIC, microtiter broth dilution. The settings on record: Aspergillus fumigatus, ATCC28214, 24 h, read-out: MIC values, A. fumigatus, 30°, 24 hours.
For assay [4], the system named is Erysiphe graminis f. sp. tritici. Nature of the assay: Example D wheat powdery mildew. In kind it is in vivo. As to conditions: Blumeria graminis, 144 h; 20 PPM; read-out: disease control rating, Ex. D. The method, then:
The test compounds were dissolved in acetone in an amount equal to 6% of the final volume and then suspended at a concentration of 100 or 20 ppm in purified water containing 250 ppm of the surfactant TREM 014 (polyhydric alcohol esters). This suspension was sprayed to the point of run-off on wheat seedlings.

The test system of another assay is Venturia inaequalis. Nature of the assay: Example A apple scab. The settings on record: 20 PPM, read-out: disease control rating, Ex. A. In kind it is in vivo. The procedure:
The test compounds were dissolved in acetone in an amount equal to 6% of the final volume and then suspended at a concentration of 100 or 20 ppm in purified water containing 250 ppm of the surfactant TREM 014 (polyhydric alcohol esters). This suspension was sprayed to the point of run-off on apple seedings.

Another assay concerns Phytophthora infestans. Nature of the assay: whole plant or invertebrate. In kind it is in vivo. The settings on record: Phytophthora infestans, in Solanum lycopersicum, read-out: disease control rating, Ex. H, 100 PPM.
Assay [5] has as its system Candida albicans ATCC 11651. In words: In vivo systemic Candida infection in mice, primary assay. The arrangement: species or system Candida albicans; CF-1 female mice. As to conditions: Candida albicans, 150 mg/kg per day, read-out: % Survival. The text has this:
The […] activity of test compounds is based on the percent (%) survival of infected animals receiving test or standard agent compared to that in an infected untreated group (Table 6). The in vivo assays are chronic systemic infections lethal to mice within 7 days post infection, [J. Barnes, et al. Lab Investigation, 49 460-467 (1963), and T. Rogers and E. Balish, Infection and Immunity, 14 33-38 (1976)].
Candida albicans ATCC 11651, from a frozen stock culture (10^9 organisms/ml) maintained at -70°, is diluted in saline to 1×10^7 organisms/ml and 0.2 ml inoculated intravenously (caudal vein) into 20.0 gm CF-1 female mice (Charles River).
Test compounds are routinely solubilized in 0.25% (w/v) methylcellulose (Methocel®) but for those compounds difficult to solubilize 10% (w/v) Emulophor® (EL620 GAF Corp.) is used. The standard antifungal agents, amphotericin B (Fungizone®) in water and ketoconazole (Nizoral®) in Methocel®, are administered at 1.0 mg/kg/day and 150 mg/kg/day, respectively.
In a primary assay, mice (10 per group) are infected with C. albicans, and receive test compounds at 50 or 150 mg/kg/day via the subcutaneous route. Animals are dosed with the test compound at 1 and 6 hour post-infection and then once daily for the next three days. Survival of mice in each group is recorded for 21 days.
Compounds which protect ≥70% of the infected animals for 14 days at a dose 150 mg/kg/day or less are viewed as active.

Regarding `C=C(c1cccc(Cl)c1)C(O)(Cn1cncn1)c1ccccc1F` (centres unmarked) [Example 47], the pest or weed control at 20 ppm in the assay on Botrytis cinerea is 26%; in the assay with Puccinia recondita, 100%; in [1] it was 100%; in the assay with Rhizoctonia solani, 0%; with Pyricularia oryzae it was 15%; in [4], 98%. The pest or weed control at 20 ppm with Venturia inaequalis turned out to be 93%. Further, the pest or weed control at 100 ppm with Botrytis cinerea turned out to be 89%; in the assay on Plasmorpara viticola, 25%; in the assay with Rhizoctonia solani, 47%; with Pyricularia oryzae it was 31%; with Phytophthora infestans it was 0%. Besides, the minimal inhibitory concentration (MIC) in assay [2] worked out at 0.03 µg/mL (≈ 0.0873 µM); in [3] it was 1.6 µg/mL (≈ 4.65 µM). Moreover, the responders at 150 mg/kg worked out at 90% in [5] (ATCC11651, 168 h, day 7); 80% in assay [5] (ATCC11651, 336 h, day 14); 30% in assay [5] (ATCC11651, 504 h, day 21).
For `C=C(c1ccc(SC)cc1)C(O)(Cn1cncn1)c1ccc(F)cc1` (centres unmarked) [Example 163], the pest or weed control at 20 ppm in the assay with Botrytis cinerea worked out at 58%; with Puccinia recondita, 99%; in [1], 81%; in the assay on Rhizoctonia solani, 0%; with Pyricularia oryzae, 5%; in assay [4], 23%. In addition, the pest or weed control at 20 ppm in the assay with Venturia inaequalis was determined as 0%. Also, the pest or weed control at 100 ppm in the assay with Botrytis cinerea came to 95%; in the assay with Plasmorpara viticola it was 0%; with Rhizoctonia solani it was 0%; with Pyricularia oryzae, 5%; with Phytophthora infestans, 0%. In addition, the figures for the MIC in assay [2] and in [3] were 0.03 µg/mL (≈ 0.0844 µM) and 12.5 µg/mL (≈ 35.2 µM), respectively. In addition, the responders at 150 mg/kg in [5] (ATCC11651, 168 h, day 7) turned out to be 90%; in assay [5] (ATCC11651, 336 h, day 14), 60%; in assay [5] (ATCC11651, 504 h, day 21), 40%.
For the molecule `C=C(c1ccc(SC)cc1)C(O)(Cn1cncn1)c1ccc(F)cc1F` (centres unmarked) [Example 164], the pest or weed control at 20 ppm in the assay with Botrytis cinerea is 57%; in the assay with Puccinia recondita, 100%; in assay [1], 100%; with Rhizoctonia solani, 0%; with Pyricularia oryzae, 5%; in [4] it was 88%. In the assay on Venturia inaequalis, the pest or weed control at 20 ppm stood at 82%. Further, the pest or weed control at 100 ppm with Botrytis cinerea was found to be 84%; with Plasmorpara viticola it was 0%; in the assay with Rhizoctonia solani, 0%; with Pyricularia oryzae, 15%; in the assay on Phytophthora infestans it was 8%. Moreover, the MIC came to 0.03 µg/mL (≈ 0.0803 µM) in [2] and 1.6 µg/mL (≈ 4.28 µM) in assay [3]. For the same molecule, the responders at 150 mg/kg worked out at 100% in assay [5] (ATCC11651, 168 h, day 7); 80% in assay [5] (ATCC11651, 336 h, day 14); 70% in [5] (ATCC11651, 504 h, day 21).
Turning to `C=C(c1ccc(F)cc1)C(Cn1cncn1)(OC(C)=O)c1ccc(F)cc1` (centres unmarked) [Example 361], the pest or weed control at 20 ppm with Botrytis cinerea is 29%; with Puccinia recondita, 100%; in assay [1], 26%; with Rhizoctonia solani it was 0%; with Pyricularia oryzae, 1%; in assay [4], 33%. Moreover, in the assay with Venturia inaequalis, the pest or weed control at 20 ppm was found to be 43%. For the same molecule, the pest or weed control at 100 ppm stood at 46% in the assay with Botrytis cinerea; 9% in the assay with Plasmorpara viticola; 0% in the assay on Rhizoctonia solani; 1% in the assay on Pyricularia oryzae; 27% with Phytophthora infestans. In addition, the MIC in [2] turned out to be 0.8 µg/mL (≈ 2.17 µM); in assay [3], 25 µg/mL (≈ 67.7 µM). The responders at 150 mg/kg was determined as 100% in [5] (ATCC11651, 168 h, day 7); 100% in assay [5] (ATCC11651, 336 h, day 14); 90% in assay [5] (ATCC11651, 504 h, day 21).
As to `C=C(c1ccccc1)C(O)(Cn1cncn1)c1ccccc1Cl` (centres unmarked) [Example 596], the pest or weed control at 20 ppm was 35% in the assay with Botrytis cinerea; 100% in the assay on Puccinia recondita; 95% in assay [1]; 0% in the assay on Rhizoctonia solani; 0% with Pyricularia oryzae; 94% in assay [4]. In addition, the pest or weed control at 20 ppm in the assay with Venturia inaequalis was 91%. In addition, the pest or weed control at 100 ppm is 89% in the assay with Botrytis cinerea; 25% in the assay with Plasmorpara viticola; 0% in the assay on Rhizoctonia solani; 0% in the assay on Pyricularia oryzae; 0% with Phytophthora infestans. The MIC was found to be 0.05 µg/mL (≈ 0.153 µM) in [2] and 0.4 µg/mL (≈ 1.23 µM) in assay [3]. Besides, the responders at 150 mg/kg in assay [5] (ATCC11651, 168 h, day 7) stood at 70%; in assay [5] (ATCC11651, 336 h, day 14), 60%; in assay [5] (ATCC11651, 504 h, day 21) it was 40%.
`C=C(c1ccccc1Cl)C(O)(Cn1cncn1)c1ccc(Cl)c(Cl)c1` (centres unmarked) [Example 627]: the pest or weed control at 20 ppm with Botrytis cinerea is 19%; in the assay with Puccinia recondita, 99%; in assay [1] it was 70%; in the assay with Rhizoctonia solani it was 0%; in the assay on Pyricularia oryzae, 0%; in [4], 81%. The pest or weed control at 20 ppm in the assay with Venturia inaequalis came to 31%. The pest or weed control at 100 ppm with Botrytis cinerea came out at 38%; in the assay with Plasmorpara viticola it was 61%; with Rhizoctonia solani, 14%; in the assay on Pyricularia oryzae, 0%; in the assay on Phytophthora infestans it was 0%. In addition, the figures for the minimal inhibitory concentration (MIC) in [2] and in assay [3] were 0.03 µg/mL (≈ 0.076 µM) and 25 µg/mL (≈ 63.3 µM), respectively. Moreover, the responders at 150 mg/kg in [5] (ATCC11651, 168 h, day 7) was determined as 0%; in assay [5] (ATCC11651, 336 h, day 14) it was 0%; in [5] (ATCC11651, 504 h, day 21), 0%.
Consider `C=C(c1ccc(F)cc1)C(O)(Cn1cncn1)c1cccc(C(F)(F)F)c1` (centres unmarked) [Example 661], for which the pest or weed control at 20 ppm turned out to be 61% in the assay on Botrytis cinerea; 100% in the assay on Puccinia recondita; 79% in assay [1]; 10% in the assay on Rhizoctonia solani; 0% in the assay with Pyricularia oryzae; 62% in assay [4]. The pest or weed control at 20 ppm with Venturia inaequalis was 81%. For the same molecule, the pest or weed control at 100 ppm in the assay with Botrytis cinerea was 56%; in the assay on Plasmorpara viticola it was 85%; in the assay on Rhizoctonia solani, 70%; with Pyricularia oryzae, 0%; in the assay on Phytophthora infestans, 5%. In addition, the minimal inhibitory concentration (MIC) in [2] is 1.6 µg/mL (≈ 4.24 µM); in [3], 100 µg/mL (≈ 265 µM). Further, the responders at 150 mg/kg in assay [5] (ATCC11651, 168 h, day 7) came out at 50%; in assay [5] (ATCC11651, 336 h, day 14), 20%; in assay [5] (ATCC11651, 504 h, day 21) it was 0%.
